Results from paper PMC2943919, “Green Tea Catechin, Epigallocatechin Gallate, Suppresses Signaling by the dsRNA Innate Immune Receptor RIG-I” (PLoS ONE, 2010).
pIC50: −log10 of the molar value.

What was measured:
[1] = target: T1, RIG-I (Retinoic acid-inducible gene I) (Homo sapiens, UniProt O95786); assay: RNA-dependent ATPase assay (ADP-Glo) with recombinant RIG-I; supported by native gel mobility shift; type: biochemical; set-up: gene RIGI; recombinant full length RIG-I
T1 sequence (O95786 1-925): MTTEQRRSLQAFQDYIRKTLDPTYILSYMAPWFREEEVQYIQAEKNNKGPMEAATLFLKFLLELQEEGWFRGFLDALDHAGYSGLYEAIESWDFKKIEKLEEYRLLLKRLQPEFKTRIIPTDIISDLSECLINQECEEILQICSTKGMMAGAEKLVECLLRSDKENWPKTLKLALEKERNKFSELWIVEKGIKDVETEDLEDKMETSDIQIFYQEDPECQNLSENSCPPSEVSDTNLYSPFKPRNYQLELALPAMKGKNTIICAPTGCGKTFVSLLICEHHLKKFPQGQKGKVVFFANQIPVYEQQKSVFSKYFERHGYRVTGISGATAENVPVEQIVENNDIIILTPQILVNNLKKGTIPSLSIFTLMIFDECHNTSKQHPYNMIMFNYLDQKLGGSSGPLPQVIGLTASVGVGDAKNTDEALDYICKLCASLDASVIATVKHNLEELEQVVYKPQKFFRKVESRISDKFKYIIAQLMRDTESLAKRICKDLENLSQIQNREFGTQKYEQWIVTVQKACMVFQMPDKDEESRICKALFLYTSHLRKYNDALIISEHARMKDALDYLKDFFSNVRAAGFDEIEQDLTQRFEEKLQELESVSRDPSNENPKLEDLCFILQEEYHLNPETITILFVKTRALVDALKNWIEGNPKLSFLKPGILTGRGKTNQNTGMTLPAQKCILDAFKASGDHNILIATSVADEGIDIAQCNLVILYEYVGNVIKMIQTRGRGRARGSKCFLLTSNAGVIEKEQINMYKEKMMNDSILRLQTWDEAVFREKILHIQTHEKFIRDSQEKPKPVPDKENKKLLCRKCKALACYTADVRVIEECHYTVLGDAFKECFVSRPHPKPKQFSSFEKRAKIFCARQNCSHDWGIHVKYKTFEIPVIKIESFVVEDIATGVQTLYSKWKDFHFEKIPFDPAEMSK

[2] = target: T1, RIG-I (Retinoic acid-inducible gene I); assay: RNA-dependent ATPase assay (ADP-Glo) at […]; type: biochemical; set-up: gene RIGI; recombinant RIG-I

## O=C(O[C@@H]1Cc2c(O)cc(O)cc2O[C@@H]1c1cc(O)c(O)c(O)c1)c1cc(O)c(O)c(O)c1 [EGCG, Epigallocatechin gallate]
[1]
  pIC50: > 6.30

## O=C(O[C@@H]1Cc2c(O)cc(O)cc2O[C@@H]1c1ccc(O)c(O)c1)c1cc(O)c(O)c(O)c1 [ECG, epicatechin gallate]
[2]
  RNA-dependent ATPase assay (ADP-Glo) at 0.5 and 1 μM: GCG, ECG, CG and TFDG inhibited the shR9-induced RIG-I ATPase activity to similar degree as EGCG

## O=C(O[C@@H]1Cc2c(O)cc(O)cc2O[C@H]1c1cc(O)c(O)c(O)c1)c1cc(O)c(O)c(O)c1 [GCG, gallocatechin gallate]
[2]
  RNA-dependent ATPase assay (ADP-Glo) at 0.5 and 1 μM: GCG, ECG, CG and TFDG inhibited the shR9-induced RIG-I ATPase activity to similar degree as EGCG
